Results: patent EP4570805A1, “TRICYCLIC COMPOUNDS AND MEDICAL USE THEREOF” (Chia Tai Tianqing Pharmaceutical Group Co., Ltd., priority 2022, dated 2024)
pIC50: −log10 of the molar value. Where two headings read alike, the source gives them in different places. Values belong to the compound of their own block, whether it stands above or below them.

Columns and labels:
Capan-1 cells = assay: Inhibitory activity for Capan-1 cell proliferation (CCK-8); assay type: cell-based; conditions: Homo sapiens, CAPAN-1, 120 h, 5 days incubation
In short: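 Capan-1 cells were seeded at 1.5 × 10^4 cells/mL and exposed to compound for 5 days. CCK-8 was added for 4 h, with absorbance read at 450 nm. IC50 came from a four-parameter dose-response fit.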

[1] = In vitro liver microsomal stability, mouse; conditions: mouse liver microsome 0.5 mg/mL, 37 °C
Description: (§1) Liver microsome incubation samples (species: human, monkey, rat, and mouse) were prepared by mixing a PBS buffer (pH 7.4), a liver microsome solution (0.5 mg/mL), a test compound, and an NADPH + MgCl2 solution and incubated at 37 °C and 300 rpm for 1 h. Zero-hour samples were prepared by mixing a PBS buffer (pH 7.4), a liver microsome solution (0.5 mg/mL), and a test compound. An acetonitrile solution containing an internal standard was added to the samples, and the supernatants were prepared by protein precipitation, diluted, and then assayed by LC/MS/MS.

[2] = In vivo pharmacokinetics in mice; conditions: mouse, po, ICR mice, IG, 10 mg/kg; for MRT last: read-out: MRT(0-t)
Description: ICR mice weighing 20 g to 24 g were randomized into groups with 9 mice in each group after 3 to 5 days of acclimatization, and intragastric administration of the experimental compounds was performed at a dose of 10 mg/kg.
The test animals (ICR mice) were fasted for 12 h before administration and fed 4 h after administration, and were given free access to water before, after, and during the experiment.
After intragastric administration, about 0.1 mL of blood was collected via the orbital sinus at 0.25 h (15 min), 0.5 h (30 min), 1 h, 2 h, 4 h, 6 h, 8 h, and 10 h (each mouse was subjected to blood collection at 3 to 4 time points, with 3 mice per time point). Following anticoagulation with EDTA-K2, the blood samples were transferred to a centrifuge within 30 min and then centrifuged at 4000 rpm for 10 min at 4 °C to separate the plasma. All the plasma samples were collected and immediately stored at -20 °C for testing.
20 µL of the plasma sample to be tested and the standard curve sample were pipetted, and 400 µL of acetonitrile solution containing an internal standard (20 ng/mL) was added. The mixture was shaken and mixed well for 10 min, and centrifuged at 13000 rpm for 10 min. 50 µL of the supernatant was taken and diluted with 100 µL of ultrapure water. After being mixed well, 0.5 µL of the resulting sample was subjected to LC/MS/MS, and a chromatogram was recorded.
Oral exposure of the compounds of the present disclosure was evaluated by in vivo pharmacokinetic experiments in mice.

[3] = microsomes, 1 h
Description: as §1

[4] = In vitro liver microsomal stability, human; assay type: in vitro ADME; conditions: human liver microsome 0.5 mg/mL, 37 °C
From the text: Table 2. Results for in vitro liver microsomal metabolic stability

AsPc-1 cells = assay: Inhibitory activity for AsPc-1 cell proliferation (CCK-8); assay type: cell-based, human; conditions: Homo sapiens, ASPC1, 72 h incubation
Description: AsPc-1 cells in a well-growing state were collected into a centrifuge tube, adjusted to a cell density of 3 × 10^4 cells/mL, and inoculated onto a 96-well plate (100 µL/well). The compounds were added using a nanoliter pipettor such that the final concentrations of the compounds were 5000 nM-0.31 nM (the addition was performed in duplicate). Meanwhile, a control was set. After 72 h of incubation in the cell incubator, the assay reagent CCK-8 (manufacturer: Dojindo Laboratories; 10 µL/well) was added. After 3 h of incubation in the cell incubator, the absorbance was measured at 450 nm on a PerkinElmer Envision microplate reader. A four-parameter analysis was performed, a dose-response curve was fitted, and IC50 was calculated.

The remaining amount % (T = 60 min) (0.5 mg/mL) Mouse liver microsome [1]: >60%
Structure (SMILES): C#Cc1c(F)ccc2cc(O)cc(-c3nc4c5c(nc(OC[C@@H]6CCN(C)C6)nc5c3F)N(C(C)c3cccnc3N)[C@@H](C)CO4)c12 (single isomer, unassigned) [Example 101]
pIC50 (Capan-1 cells): > 7.00

AUC(0-inf) ([2]; in vivo): 214 ng·h/mL
AUC(0-t) ([2]; in vivo): 197 ng·h/mL
Cmax ([2]; in vivo): 50.2 ng/mL
Tmax ([2]; in vivo): 0.25 h
half-life ([2]; in vivo): 2.77 h
MRT last ([2]; in vivo): 3.4 h
Structure (SMILES): Cc1c(F)cc2[nH]ncc2c1-c1nc2c3c(nc(OC[C@@]45CCCN4C[C@H](F)C5)nc3c1F)N(C(C)c1cccnc1N)[C@@H](C)CO2 (single isomer, unassigned) [Example 85]
pIC50 (Capan-1 cells): > 7.00

The remaining amount % (T = 60 min) (0.5 mg/mL) Mouse liver microsome [3]: >60%
Structure (SMILES): C#Cc1c(F)ccc2cc(O)cc(-c3nc4c5c(nc(OCCN6CCC6)nc5c3F)N(C(C)c3cccnc3N)[C@@H](C)CO4)c12 (single isomer, unassigned) [Example 134]
pIC50 (Capan-1 cells): > 7.00

Structure (SMILES): CC(c1cccnc1N)N1c2nc(OC[C@@H]3CCCN3C)nc3c(F)c(-c4cc(N)cc(Cl)c4C(F)(F)F)nc(c23)OC[C@@H]1C (single isomer, unassigned) [Example 162]
pIC50 (Capan-1 cells): > 7.00
The remaining amount % (T = 60 min) (0.5 mg/mL) Human liver microsome [4]: >40%
Cmax ([2]; plasma): 38.4 ng/mL
Tmax ([2]; plasma): 1 h
AUC(0-t) at 6 h ([2]; plasma, gavage parameters were fitted to 6 h): 156 ng·h/mL

The remaining amount % (T = 60 min) (0.5 mg/mL) Mouse liver microsome [1]: >60%
Structure (SMILES): C#Cc1c(F)ccc2cc(O)cc(-c3nc4c5c(nc(OCCN(C)C)nc5c3F)N(C(C)c3cccnc3N)[C@@H](C)CO4)c12 (single isomer, unassigned) [Example 95]
pIC50 (Capan-1 cells): > 7.00

The remaining amount % (T = 60 min) (0.5 mg/mL) Mouse liver microsome [1]: >60%
Structure (SMILES): C#Cc1c(F)ccc2cc(O)cc(-c3nc4c5c(nc(OCCCN(C)C)nc5c3F)N(C(C)c3cccnc3N)[C@@H](C)CO4)c12 (single isomer, unassigned) [Example 79]
pIC50 (Capan-1 cells): > 7.00

The remaining amount % (T = 60 min) (0.5 mg/mL) Mouse liver microsome [3]: >60%
Structure (SMILES): C#Cc1c(F)ccc2cc(O)cc(-c3nc4c5c(nc(OC[C@H](C)N(C)C)nc5c3F)N(C(C)c3cccnc3N)[C@@H](C)CO4)c12 (single isomer, unassigned) [Example 111]
pIC50 (Capan-1 cells): > 7.00

AUC(0-inf) ([2]; in vivo): 309 ng·h/mL
AUC(0-t) ([2]; in vivo): 266 ng·h/mL
Cmax ([2]; in vivo): 49 ng/mL
Tmax ([2]; in vivo): 0.25 h
half-life ([2]; in vivo): 3.66 h
MRT last ([2]; in vivo): 4.93 h
Structure (SMILES): C#Cc1c(F)ccc2cccc(-c3nc4c5c(nc(OC[C@@H]6CCCN6C)nc5c3F)N(C(C)c3cccnc3N)[C@@H](C)CO4)c12 (single isomer, unassigned) [Example 87]
pIC50 (Capan-1 cells): > 7.00

The remaining amount % (T = 60 min) (0.5 mg/mL) Human liver microsome [4]: >40%
Structure (SMILES): C#Cc1c(F)ccc2cc(O)cc(-c3nc4c5c(nc(O[C@@H](C)[C@@H]6CCCN6C)nc5c3F)N(C(C)c3cccnc3N)[C@@H](C)CO4)c12 (single isomer, unassigned) [Example 107]
pIC50 (Capan-1 cells): > 7.00

The remaining amount % (T = 60 min) (0.5 mg/mL) Mouse liver microsome [3]: >60%
Structure (SMILES): C#Cc1c(F)ccc2cc(O)cc(-c3nc4c5c(nc(OCCCN6CCNCC6)nc5c3F)N(C(C)c3cccnc3N)[C@@H](C)CO4)c12 (single isomer, unassigned) [Example 140]
pIC50 (Capan-1 cells): > 7.00

The remaining amount % (T = 60 min) (0.5 mg/mL) Mouse liver microsome [1]: >60%
Structure (SMILES): C#Cc1c(F)ccc2cc(O)cc(-c3nc4c5c(nc(O[C@H]6CCN(C)C6)nc5c3F)N(C(C)c3cccnc3N)[C@@H](C)CO4)c12 (single isomer, unassigned) [Example 103]
pIC50 (Capan-1 cells): > 7.00

pIC50 (AsPc-1 cells): ≥ 7.00
The remaining amount % (T = 60 min) (0.5 mg/mL) Human liver microsome [4]: >40%
Structure (SMILES): C#Cc1c(F)ccc2cc(O)cc(-c3nc4c5c(nc(OCC67CCCN6CCC7)nc5c3F)N(C(C)c3cccnc3N)[C@@H](C)CO4)c12 (single isomer, unassigned) [Example 97]
pIC50 (Capan-1 cells): > 7.00
